Source: the NIST ThermoML archive (doi:10.1021/je0342320)
Numbers after ± are expanded uncertainties.

Test: xn = mol fraction of the nth substance listed
Conditions: Liquid, Vibrating tube method

CCCCCCCCCC [decane] + COC(=O)OC
mass density [kg/m3]
Conditions	100 kPa	10000 kPa	20000 kPa	30000 kPa	40000 kPa
298.15 K, x2 = 0.0676	–	–	–	755.23 ± 0.57	761.28 ± 0.62
298.15 K, x2 = 0.2303	–	–	–	781.73 ± 0.56	788.05 ± 0.6
298.15 K, x2 = 0.2934	–	–	–	–	800.4 ± 0.6
298.15 K, x2 = 0.4055	–	–	–	818.38 ± 0.55	825 ± 0.58
298.15 K, x2 = 0.502	–	–	836.29 ± 0.53	843.57 ± 0.55	850.35 ± 0.57
298.15 K, x2 = 0.5476	–	–	849.77 ± 0.53	857.18 ± 0.55	864.11 ± 0.57
298.15 K, x2 = 0.5883	–	–	862.62 ± 0.53	870.04 ± 0.55	876.98 ± 0.56
298.15 K, x2 = 0.665	–	–	889.73 ± 0.54	897.31 ± 0.55	904.39 ± 0.56
298.15 K, x2 = 0.7101	–	–	908.1 ± 0.54	915.87 ± 0.55	923.09 ± 0.56
298.15 K, x2 = 0.7993	–	–	948.28 ± 0.56	956.06 ± 0.56	–
298.15 K, x2 = 0.9062	–	–	1009.74 ± 0.59	1017.62 ± 0.59	1025.01 ± 0.6
303.15 K, x2 = 0.0676	730.48 ± 0.44	738.15 ± 0.48	745.3 ± 0.52	751.9 ± 0.57	758.05 ± 0.63
303.15 K, x2 = 0.2303	755.57 ± 0.46	763.68 ± 0.48	771.21 ± 0.52	778.15 ± 0.56	784.61 ± 0.61
303.15 K, x2 = 0.2934	767.36 ± 0.46	775.58 ± 0.49	783.23 ± 0.52	790.27 ± 0.56	796.82 ± 0.6
303.15 K, x2 = 0.4055	790.78 ± 0.47	799.32 ± 0.5	807.2 ± 0.52	814.45 ± 0.55	821.19 ± 0.59
303.15 K, x2 = 0.502	815.09 ± 0.49	823.86 ± 0.5	831.94 ± 0.53	839.39 ± 0.55	846.29 ± 0.57
303.15 K, x2 = 0.5476	828.19 ± 0.49	837.03 ± 0.51	845.25 ± 0.53	852.82 ± 0.55	859.91 ± 0.57
303.15 K, x2 = 0.5883	840.82 ± 0.5	849.74 ± 0.51	858.02 ± 0.53	865.63 ± 0.55	872.72 ± 0.56
303.15 K, x2 = 0.665	867.33 ± 0.51	876.43 ± 0.52	884.86 ± 0.54	892.63 ± 0.55	899.87 ± 0.56
303.15 K, x2 = 0.7101	885.21 ± 0.52	894.46 ± 0.53	903.07 ± 0.54	911.02 ± 0.55	918.42 ± 0.56
303.15 K, x2 = 0.7993	925.09 ± 0.54	934.41 ± 0.55	943.03 ± 0.56	951.01 ± 0.56	958.41 ± 0.56
303.15 K, x2 = 0.9062	985.93 ± 0.58	995.33 ± 0.58	1004.09 ± 0.58	1012.2 ± 0.59	1019.78 ± 0.59
308.15 K, x2 = 0.0676	726.53 ± 0.44	734.45 ± 0.48	741.78 ± 0.52	–	–
308.15 K, x2 = 0.2303	751.35 ± 0.45	759.73 ± 0.48	767.45 ± 0.52	–	–
308.15 K, x2 = 0.2934	763 ± 0.46	771.51 ± 0.49	779.37 ± 0.52	–	–
308.15 K, x2 = 0.4055	786.2 ± 0.47	794.99 ± 0.5	803.1 ± 0.52	–	–
308.15 K, x2 = 0.502	810.29 ± 0.49	819.3 ± 0.5	–	–	–
308.15 K, x2 = 0.5476	823.17 ± 0.49	832.33 ± 0.51	–	–	–
308.15 K, x2 = 0.5883	835.71 ± 0.5	844.95 ± 0.51	–	–	–
308.15 K, x2 = 0.665	861.96 ± 0.51	871.37 ± 0.52	–	–	–
308.15 K, x2 = 0.7101	879.57 ± 0.52	889.19 ± 0.53	–	–	–
308.15 K, x2 = 0.7993	919.3 ± 0.54	928.93 ± 0.55	–	–	–
308.15 K, x2 = 0.9062	979.75 ± 0.57	989.47 ± 0.58	–	–	–
